Measured values taken from patent US20140193846A1, “NOVEL APOC-I ISOFORMS AND THEIR USE AS BIOMARKERS AND RISK FACTORS OF ATHEROSCLEROTIC DISEASE” (SCOTT & WHITE HEALTHCARE, priority 2011, published 2014).
“Also recorded” adds a separate entry of the source.

How the values were obtained:
[1] = tested on: ICAM-1 expression by HAECs; experiment: ICAM-1 expression by HAECs exposed to lipoprotein fractions; format: cell-based, human; conditions: HAECs pre-treated with inhibitor
[2] = tested on: Human aortic endothelial cells (HAECs); experiment: Nitric oxide (NO) release from HAECs incubated with HDL sub-fractions (DAF fluorescence); format: cell-based; conditions: HAECs pretreated, then incubated with apoptotic HDL2
Protocol: Human aortic endothelial cells (HAECs) were incubated with HDL sub-fractions for 12 h from a subject with apoptotic HDL2 (and CAD) and a subject with non-apoptotic HDL2 (without CAD). The cells were then stained with 4′5′-diamino flourescein 2-diacetate (DAF) (Invitrogen/Molecular Probes, CA), a fluorescent probe that allows for real-time detection of NO. Following incubation cells were washed with phosphate buffered saline (PBS) to remove unbound dye and mounted on a drop of 10% glycerol in PBS and photographed by fluorescence microscopy.

[3] = tested on: ASMC apoptosis mediated by HDL2 from subject 10; experiment: Effect of N-SMase inhibitor on HDL2-induced ASMC apoptosis; format: cell-based, human; conditions: GW 4869 20 umol/L; for effect of inhibitor on HDL2-induced ASMC apoptosis (words): HDL2 from subject 10
Protocol: The same procedure described in detail by Kolmakova et al., Arterioscler. Thromb. Vasc. Biol., 24:264-269 (2004) was used. In brief, 10^3 human ASMC (Cambrex, Walkersville, Md.), were grown on sterilized glass cover slips in 6-well trays and treated with 2.5 μL of the various lipoprotein fractions per ml of medium. After 24 hour incubation, the medium was removed and cells were fixed and stained. The average ApoA-I concentration in the HDL2 and HDL3 fractions was ˜25 mg/dL and ˜40 mg/dL, respectively.
The effect of GW 4869 (20 umol/L), a noncompetitive inhibitor of N-SMase (Luberto C. et al., J. Biol Chem., 277(43):41128-41139 (2002)), on ASMC apoptosis mediated by HDL2 from subject 10 was studied and the results are shown in FIG. 9. […] The effect of HDL2 on apoptosis was also dose-dependent: when only 1 μl of HDL2 was used a 20.1% apoptosis of ASMC resulted as compared to ˜50% apoptosis when 2.5 μl HDL2 from the same subject was used.

[4] = target: T1, lecithin-cholesterol acyl transferase (LCAT) (Homo sapiens, UniProt P04180); conditions: % of the activity demonstrated by apoA-I; cited from earlier work
T1 sequence (P04180 25-440): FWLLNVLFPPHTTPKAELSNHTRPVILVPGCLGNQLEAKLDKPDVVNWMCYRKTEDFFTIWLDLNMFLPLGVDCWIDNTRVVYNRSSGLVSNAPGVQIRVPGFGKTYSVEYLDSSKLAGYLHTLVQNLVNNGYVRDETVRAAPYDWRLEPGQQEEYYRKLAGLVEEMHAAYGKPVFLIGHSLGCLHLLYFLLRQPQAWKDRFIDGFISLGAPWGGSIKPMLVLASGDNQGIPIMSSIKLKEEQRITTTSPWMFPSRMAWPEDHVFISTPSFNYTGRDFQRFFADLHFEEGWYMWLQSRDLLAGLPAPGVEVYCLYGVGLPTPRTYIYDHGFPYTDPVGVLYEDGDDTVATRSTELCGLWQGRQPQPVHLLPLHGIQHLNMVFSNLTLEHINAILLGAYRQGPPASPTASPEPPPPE

In the case of `S=C(S)N1CCCC1` [PDTC, Pyrrolidine dithiocarbamate], the “effect of pre-treating HAECs on HDL2-increased ICAM-1 expression” value [1] is reported as “attenuated” and the “effect of pretreatment on HDL2-induced NO release from HAECs” value [2] is reported as “markedly reduced NO release; also recorded: production of NO was blocked”.

In the case of `CNC(=N)NCCC[C@H](N)C(=O)O` [NMLA, NG monomethyl-L-arginine], the “effect of pre-treating HAECs on HDL2-increased ICAM-1 expression” value [1] is reported as “attenuated”.

With `O=C(/C=C/c1ccc(/C=C/C(=O)Nc2ccc(C3=NCCN3)cc2)cc1)Nc1ccc(C2=NCCN2)cc1` [GW4869] the “number of apoptotic cells with HDL2 plus inhibitor” value ([3]; 1 μL HDL2 from subject 10, 20.1% without inhibitor) was 1.19%, the “effect of inhibitor on HDL2-induced ASMC apoptosis (words)” value [3] was “inhibits apoptosis” and the “effect of inhibitor on HDL2-induced ASMC apoptosis (words)” value ([3]; listed as GW 4869) was “almost completely prevented HDL2-induced apoptosis”.

For “ApoC-I: mature 57 amino acid apolipoprotein C-I protein set forth in SEQ ID NO:6 (TPDVSSALDKLKEFGNTLEDKARELIBRINKQSELSAKMREWFSETFQKVKELKIDS; listed as Homo sapiens)”, the “LCAT stimulation, activity relative to apoA-I” value [4] is given as “approximately 78%”.
